Several values for one entry are separate records, joined by “and”; a condition that tells them apart may be missing. Equal entries are not always repeated.
Tested on: Rattus norvegicus
Settings: oral
[1] = chronic, duration: 6 months, drinking water, M/F, Sprague-Dawley, Morris water maze (escape time, acquisition, day 6)
[2] = chronic, duration: 6 months, drinking water, M, Wistar, open field (entries to neighboring grids, day 1) + Y-maze (correct responses, day 9)
[3] = chronic, duration: 6 months, drinking water, M, Wistar, open field (standing attempts, day 1) + open field (standing attempts, day 9) + open field (time in central grid, day 1) + Y-maze (correct …
[4] = developmental, drinking water, M/F, Wistar, generation: F1, F1: active avoidance (shuttle box, conditioned avoidance response, day 2)
[5] = developmental, drinking water, M/F, Wistar, generation: F1, F1: maze test (latency to complete, day 1) + F1: maze test (latency to complete, day 5) + F1: maze test (number entries into blind alleys, …
[6] = developmental, drinking water, M, Wistar, generation: F1, F1: elevated plus maze (open arm entries) + F1: elevated plus maze (time in open arms) + F1: open field (grooming events) + F1: open field (…

[F-].[Na+] [Sodium fluoride]
LOEL (chronic, duration: 5 months, drinking water, Sprague-Dawley, Y-maze (number of correct responses over 10 trainings after 24 hours) + Y-maze (number of training runs to meet learning standard 90%)): 9.8 mg/kg-day
LOEL (chronic, duration: 5 months, drinking water, Wistar, Y-maze (number of training runs to achieve 9 consecutive correct responses)): 6.91 mg/kg-day
NOEL (chronic, duration: 6 months, drinking water, M/F, Sprague-Dawley, Morris water maze (escape time, acquisition, day 1)): 3.28 mg/kg-day and 3.27 mg/kg-day
LOEL [1]: 3.27 mg/kg-day
NOEL [1]: 0.33 mg/kg-day
LOEL (chronic, duration: 6 months, drinking water, M/F, Sprague-Dawley, Morris water maze (escape time, acquisition, day 6) + Morris water maze (escape time, probe test, day 7)): 0.33 mg/kg-day
LOEL (chronic, duration: 6 months, drinking water, M/F, Sprague-Dawley, Morris water maze (escape time, acquisition, day 6) + Morris water maze (time in platform area, probe test, day 7) + Morris water maze (time…): 0.33 mg/kg-day
NOEL (chronic, duration: 6 months, drinking water, M/F, Sprague-Dawley, Morris water maze (platform crossing, probe test, day 7)): 3.27 mg/kg-day
LOEL (chronic, duration: 6 months, drinking water, M/F, Sprague-Dawley, Morris water maze (time in platform area, probe test, day 7)): 0.33 mg/kg-day
LOEL (chronic, duration: 6 months, drinking water, M, Wistar, Y-maze (time to meet learning standard 90%)): 3.34 mg/kg-day
LOEL [2]: 10 mg/kg-day
NOEL [2]: 6.67 mg/kg-day
NOEL (chronic, duration: 6 months, drinking water, M, Wistar, open field (entries to neighboring grids, day 9) + open field (time in central grid, day 9)): 10 mg/kg-day
LOEL [3]: 6.67 mg/kg-day
NOEL [3]: 3.34 mg/kg-day
LOEL (chronic, duration: 10 months, drinking water, M/F, Sprague-Dawley, Morris water maze (escape time, acquisition, average over days 1-6) + Morris water maze (platform crossing, probe test, day 7)): 2.16 mg/L urine
LOEL (chronic, duration: 14 weeks, drinking water, M, Wistar, sexual behavior (ejaculation frequency) + sexual behavior (ejaculation latency) + sexual behavior (intromission latency) + sexual behavior (…): 6.67 mg/kg-day
NOEL (chronic, duration: 115 days, drinking water, M, Wistar, open field (squares crossed)): 6.67 mg/kg-day
LOEL (chronic, duration: 115 days, drinking water, M, Wistar, plank walking (narrow, distance traveled) + plank walking (narrow, number of turns) + plank walking (wide, distance traveled) + plank …): 6.67 mg/kg-day
LOEL (developmental, diet, M/F, Sprague-Dawley, generation: F1, F1: Morris water maze (escape time, acquisition, day 6) + F1: Morris water maze (platform crossing, probe test, day 7) + F1: Morris water …): 8.52 mg/L urine
NOEL (developmental, drinking water, F, Wistar, generation: F1, F1: cliff avoidance + F1: ear opening + F1: negative geotaxis + F1: surface righting): 0.54 mg/kg-day
LOEL (developmental, drinking water, F, Wistar, generation: F1, F1: elevated plus maze (open arm entries) + F1: elevated plus maze (time in open arms) + F1: open field (grooming events) + F1: open field (…): 0.27 mg/kg-day
NOEL (developmental, drinking water, F, Wistar, generation: F1, F1: elevated plus maze (open arm entries) + F1: open field (defecation) + F1: open field (grooming events) + F1: open field (rearing events…): 0.54 mg/kg-day
LOEL (developmental, drinking water, F, Wistar, generation: F1, F1: elevated plus maze (time in open arms)): 0.27 mg/kg-day
LOEL (developmental, drinking water, F, Wistar, generation: F1, F1: eye opening): 0.27 mg/kg-day
NOEL (developmental, drinking water, F, Wistar, generation: F1, F1: open field (defecation) + F1: open field (rearing events, 15 min)): 0.54 mg/kg-day
LOEL (developmental, drinking water, M/F, Sprague-Dawley, generation: F1, F1: Morris water maze (distance traveled to reach platform, acquisition, day 4) + F1: Morris water maze (latency to reach platform, …): 1.63 mg/kg-day
LOEL (developmental, drinking water, M/F, Sprague-Dawley, generation: F1, F1: Morris water maze (escape time, acquisition, average over days 1-6) + F1: Morris water maze (platform crossing, probe test, day 7) + F1…): 3.27 mg/kg-day
NOEL (developmental, drinking water, M/F, Sprague-Dawley, generation: F1, F1: Morris water maze (swim speed to reach platform, acquisition, day 4)): 6.53 mg/kg-day
LOEL [4]: 4.35 mg/kg-day
NOEL [4]: 2.18 mg/kg-day
LOEL (developmental, drinking water, M/F, Wistar, generation: F1, F1: active avoidance (shuttle box, conditioned avoidance response, day 9) + F1: pain response (hot plate, latency period)): 2.18 mg/kg-day
LOEL (developmental, drinking water, M/F, Wistar, generation: F1, F1: elevated plus maze (open arm entries) + F1: elevated plus maze (time in open arms) + F1: mid-air righting (number of animals successful…): 9.05 mg/kg-day
LOEL [5]: 4.87 mg/kg-day
NOEL [5]: 2.33 mg/kg-day
LOEL (developmental, drinking water, M/F, Wistar, generation: F1, F1: open field (rearing events, day 1) + F1: open field (rearing events, day 3)): 2.33 mg/kg-day
NOEL (developmental, drinking water, M/F, Wistar, generation: F1, F1: open field (squares crossed, day 1) + F1: open field (squares crossed, day 3)): 4.87 mg/kg-day
LOEL (developmental, drinking water, M/F, Wistar, generation: F1, F1: passive avoidance (step-down test, number of shocks, session 2, day 30) + F1: passive avoidance (step-down test, time to move from …): 6.91 mg/kg-day
NOEL (developmental, drinking water, M, Wistar, generation: F1, F1: cliff avoidance + F1: ear opening + F1: negative geotaxis + F1: surface righting): 0.54 mg/kg-day
LOEL [6]: 0.27 mg/kg-day
NOEL [6]: 0.54 mg/kg-day
LOEL (developmental, drinking water, M, Wistar, generation: F1, F1: eye opening): 0.27 mg/kg-day
LOEL (developmental, drinking water, M, Wistar, generation: F1, F1: open field (defecation)): 0.27 mg/kg-day
NOEL (developmental, drinking water, M, Wistar, generation: F1, F1: open field (defecation) + F1: open field (rearing events, 15 min)): 0.54 mg/kg-day
LOEL (developmental, drinking water, M, Wistar, generation: F1, F1: sexual behavior (% of males ejaculating) + F1: sexual behavior (ejaculation frequency) + F1: sexual behavior (ejaculation latency) + F1…): 3.12 mg/kg-day
NOEL (developmental, drinking water, Wistar, generation: F1, F1: Y-maze (error number, 12 weeks) + F1: Y-maze (error number, 6 weeks) + F1: Y-maze (time to meet learning standard 90%, 6 weeks) + F1: Y-…): 2.78 mg/L serum
LOEL (developmental, drinking water, Wistar, generation: F1, F1: Y-maze (time to meet learning standard 90%, 12 weeks) + F1: Y-maze (total reaction time, 6 weeks)): 2.78 mg/L serum
NOEL (developmental, gavage, F, Wistar, generation: F1, F1: active avoidance (shuttle box, conditioned avoidance response, 1st block) + F1: active avoidance (shuttle box, conditioned avoidance …): 2.26 mg/kg-day

— EPA's ToxValDB 9.5
